Measured values reported in patent US11401271B2, “Fused heterocyclic compound, pyrazole-ring-containing fused heterocyclic compound, agricultural composition containing thereof, and method of using the composition” (SOUTH CHINA AGRICULTURAL UNIVERSITY, priority 2017, dated 2022).
Read-outs that look alike come from different tables or passages of the source.

Assays:
Assay type in all cases: in vivo
Plutella xylostella = experiment: whole plant or invertebrate; details: Plutella xylostella, read-out: Plutella xylostella Mortality (%) 500 ppm
Method in brief: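 Leaf immersion feeding test: 2nd-instar larvae (about 35 per vessel, 3 replicates) kept at 28° C. on 1.0 cm cabbage discs soaked 5 s in a 500 ppm solution with 0.05% Tween-80. Mortality after 24 h of exposure, calculated relative to live larvae in the Tween-80 control.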

Spodoptera exigua = experiment: whole plant or invertebrate; details: Spodoptera exigua, read-out: Spodoptera exigua Mortality (%) 500 ppm
Method in brief: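 Leaf immersion feeding: second-instar larvae (about 35 per vessel, triplicate) kept at 28° C on discs treated with 500 ppm test solution in 0.05% Tween-80. Mortality at 24 h, calculated relative to surviving larvae in the solvent control.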

Aphis craccivora = experiment: whole plant or invertebrate; details: Aphis craccivora, read-out: Aphis craccivora Mortality (%) 500 ppm
Method in brief: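 Mortality scored 24 h after treatment as the reduction in live aphids versus a 0.05% Tween-80 control; three replicates, 23° C. Treatment was a 5 s immersion of wingless adults on bean sprouts in 500 ppm test solution containing 0.05% Tween-80, followed by air-drying.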

Solenopsis invicta = experiment: whole plant or invertebrate; details: Solenopsis invicta, water test tube poison-feeding
Method in brief: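 Mortality (%) of Solenopsis invicta, computed against live counts in control tubes, was recorded 24 h and 72 h after treatment at 25 °C. Compound was offered by oral feeding in test tubes at 100 ppm, diluted from a 10 g/L DMSO stock into water with 5% honey and 0.05% Tween-80.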

Bombyx mori L. = experiment: Toxicity test on 2nd-instar larvae of Bombyx mori L., leaf immersion feeding method; details: 1000 ppm, 24 hours
Protocol: (1) Toxicity Test on 2nd-Instar Larvae of Bombyx mori L.
Bombyx mori L. is an important economic insect sensitive to pesticides in an agricultural ecosystem, and is also one of the non-target organisms of environmental ecology listed in pesticide registration of China. The 2nd-instar larvae of Bombyx mori L. were used as test objects and tested by using a leaf immersion feeding method.
Operation process: Samples were weighed accurately, and respectively added with 200 μL of dimethyl sulfoxide to prepare 10 g/L mother liquor which was diluted into a concentration of 1000 ppm with an aqueous solution containing 0.05% of Tween-80 during the test. Young cotyledons of mulberries were collected, washed and air-dried, immersed in a liquid medicine, taken out after 5 seconds, naturally air-dryed, and then transferred into a clean vessel. About 35 2nd -instar larvae of Bombyx mori L. were put into the vessel and fed at a constant temperature of 25° C. Each concentration was repeated 3 times, and an aqueous solution containing 0.05% of Tween-80 was used as a control group. After being treated for 24 hours, a number of dead Bombyx mori L. was counted, and a mortality (%) was calculated according to a formula that mortality (%)=(number of live larvae in the control group −number of treated live larvae)/number of live larvae in the control group * 100%.

Apis cernan = experiment: Toxicity test on adult worker bees of Apis cernan, small beaker method; details: 500 ppm, 48 hours
Protocol: (2) Toxicity Test on Adult Worker Bees of Apis cernan.
Adult worker bees of Apis cernan having the same size were selected for test. The worker bees were collected from beekeeping boxes in the daystart of the test day and tested by using a small beaker method.
Operation process: A small amount of absorbent cotton was put into a 5 mL small beaker, 5 mL of a test liquid medicine (a concentration of 500 ppm) was dropped into the absorbent cotton, and stirred gently to make the absorbent cotton completely wet but not leached obviously, then the small beaker was put into a 500 mL large beaker, then 15 worker bees were put into the large beaker, and finally the large beaker was sealed with gauze. After treatment, the large beaker was placed in a dark room of an artificial climate box. After taking the medicine for 48 hours, a number of live and dead worker bees were investigated.

[1] = 24 h, read-out: Solenopsis invicta Mortality (%) 100 ppm 24 h, 100 ppm, 24 h
[2] = 72 h, read-out: Solenopsis invicta Mortality (%) 100 ppm 72 h, 100 ppm, 72 h

SMILES	mortality at 500 ppm (Plutella xylostella) [%]	mortality at 500 ppm (Spodoptera exigua; 24 h) [%]	mortality at 500 ppm (Aphis craccivora; 24 h) [%]	mortality at 100 ppm (Solenopsis invicta; [1]) [%]	mortality at 100 ppm (Solenopsis invicta; [2]) [%]	Toxicity determination Bombyx mori L. Mortality (%) (Bombyx mori L.)	Toxicity determination Apis cernan Mortality (%) (Apis cernan)	mortality at 500 ppm (Plutella xylostella; 500 ppm, 2nd-instar larvae, leaf immersion feeding) [%]	mortality at 500 ppm (Spodoptera exigua; 500 ppm, 2nd-instar larvae, leaf immersion feeding, 24 hours) [%]	mortality at 500 ppm (Aphis craccivora; 500 ppm, wingless adults, impregnation method, 24 hours) [%]	mortality at 100 ppm (Solenopsis invicta; 24 h, 100 ppm, 24 h, read-out: Solenopsis invicta Mortality (%) 100 ppm 24 h) [%]	mortality at 100 ppm (Solenopsis invicta; 72 h, 100 ppm, 72 h, read-out: Solenopsis invicta Mortality (%) 100 ppm 72 h) [%]
CNC(=O)N1c2c(C#N)c(SC)nn2-c2ccccc2C1(F)C(F)(F)F (centres unmarked) [Compound A32]	100	90	100	26	93	10	4					
Nc1cc2n(n1)-c1cnccc1C(F)(CC(F)(F)F)N2 (centres unmarked) [Compound A36]	100	100	100	44	100	3	0					
O=[N+]([O-])c1cc2n(n1)-c1cnccc1C(F)(CC(F)(F)F)N2 (centres unmarked) [Compound A43]	100	100	100	20	100	3	8					
CCOC(=O)c1c(SC)nn2c1NC(C)(C)c1nc(F)ncc1-2 [Compound A44]	100	90	100	26	93	8	8					
CSc1nn2c(c1S(=O)(=O)c1ccccc1)NC(C)(C)c1nc(F)ncc1-2 [Compound A45]	100	100	100	24	100	10	11					
CC1(C)Nc2c(C#N)c(SCc3ccccc3)nn2-c2cnc(F)nc21 [Compound A46]	86	100	100	20	87	7	2					
COc1ccc(-c2cn3c(c2C#N)NC(C#N)(C#N)c2ccc([N+](=O)[O-])cc2-3)cc1 [Compound B1, 2-(4-methoxybenzene)-8-nitropyrrole[1,2-α]quinazoline-3,5,5(4H)-tricyano]	100	100	100	20	100	0	0					
COc1ccc(-c2cn3c(c2C#N)N(C)C(C#N)(C#N)c2ccc([N+](=O)[O-])cc2-3)cc1 [Compound B2]	100	90	93	26	93	3	4					
COc1ccc(-c2cn3c(c2C(C)=O)NC(C#N)(C#N)c2ccc([N+](=O)[O-])cc2-3)cc1 [Compound B3]	100	100	100	24	100	0	3					
COc1ccc(-c2cn3c(c2C(C)=O)NC(C(N)=O)(C(N)=O)c2ccc([N+](=O)[O-])cc2-3)cc1 [Compound B4]	86	100	100	20	88	0	0					
N#Cc1cn2c(c1C#N)NC(C#N)(C#N)c1ccc([N+](=O)[O-])cc1-2 [Compound B6]	90	100	100	44	100	4	5					
N#Cc1cn2c(c1C#N)NC(C#N)(C#N)c1ccc(N)cc1-2 [Compound B7]	100	100	100	38	100	6	6					
C=CC(=O)Nc1ccc2c(c1)-n1cc(C#N)c(C#N)c1NC2(C#N)C#N [Compound B8]	100	100	100	45	100	5	4					
N#Cc1cn2c(c1C#N)NC(C#N)(C#N)c1ccc(Br)cc1-2 [Compound B9]	100	100	100	38	100	0	5					
CS(=O)(=O)Nc1ccc2c(c1)-n1cc(C#N)c(C#N)c1NC2(C#N)C#N [Compound B10]	100	95	100	30	90	3	3					
COC(=O)Nc1ccc2c(c1)-n1cc(C#N)c(C#N)c1NC2(C#N)C#N [Compound B11]						7	3	100	100	100	33	95
CNC(=O)Nc1ccc2c(c1)-n1cc(C#N)c(C#N)c1NC2(C#N)C#N [Compound B12]	100	100	100	40	100	5	6					
C=CC1(CCl)Nc2cc(C#N)nn2-c2c(Cl)cc(C(F)(F)F)cc21 (stereo not drawn) [Compound C1, 9-chloro-7-trifluoromethylphenyl-5-chloromethyl-5-vinyl-4,5-dihydropyrrole[1,5-α]quinazoline-2-cyano]	89	100	100	20	100	7	7					
C=CC1(CC(F)(F)F)Nc2cc(C#N)nn2-c2c(Cl)cc(C(F)(F)F)cc21 (centres unmarked) [Compound C2]	100	90	100	26	93	5	10					
C=CC1(C(F)(F)F)Nc2cc(C#N)nn2-c2c(Cl)cc(C(F)(F)F)cc21 (centres unmarked) [Compound C3]	100	100	100	24	100	12	10					
